# Test results reported in patent US20240391958A1, “KEANUMYCINS AND USES THEREOF IN MEDICINE AND PLANT PROTECTION” (Leibniz-Institut für Naturstoff-Forschung und …, priority 2023, published 2024).
# Where two headings read alike, the source gives them in different places. Where a SMILES comes first, the peptide text is derived from it. Bridges are numbered along the chain shown (N, C = ends). [ ]: non-standard residue; d: D form. The star is where a group is joined. Decanoyl(3R-OH) = CCCCCCC[C@@H](O)CC(=O)*; d(aThr) = C[C@@H](O)[C@@H](N)C(=O)O; Dab = NCC[C@H](N)C(=O)O; Dhb = C/C=C(\N)C(=O)O
# Key:
# [1] = Stability of isolated keanumycin C; type: physicochemical; details: in solution or concentrated to dryness
# Text: The inventors isolated keanumycin A (m/z 583.7892 [M+2H]2+ consistent with the molecular formula C49H84ClN11O19) and impure keanumycin B (m/z 575.7900 [M+2H]2+; C49H84ClN11O18), which could not be separated from an unknown metabolite (FIG. 1A). The inventors were also able to isolate keanumycin C (m/z 591.7866 [M+2H]2+; C49H84ClN11O20). […] Therefore, a detailed NMR analysis was only performed on keanumycin A. Important correlations in the ^1H, ^1H-correlation spectroscopy (COSY) experiment disclosed the presence of a 3,4-dihydroxylated linear fatty acid, which is a rare motif in NRLPs and only described for two other members of the syringomycin family (FIG. 2A). […] Saponification of keanumycin A under mild conditions led to the expected dechlorinated and linear lipopeptide 1, whose planar structure was confirmed by further HRMS2 experiments.
# Candida strains = details: against Candida strains; cited from earlier work
# Candida auris 2021-353 = test: Broth dilution method (EUCAST); type: cell-based; details: Candidozyma auris, 2021353; Candida auris 2021-353, EUCAST E.DEF 9.3.2; read-out: Result of the broth dilution method assay (MIC)
# Procedure: (§1) The activity assay was performed using the broth dilution method according to the EUCAST DEFINITIVE DOCUMENT E.DEF 9.3.2. B. cinerea and A. solani were incubated according to the Methods for dilution antimicrobial susceptibility tests for bacteria that grow aerobically by the NCCLS. Keanumycin A was dissolved in DMSO.
# [2] = test system: Candida glabrata 2021-359; test: Broth dilution method (EUCAST); type: cell-based; details: Nakaseomyces glabratus, 2021359; Candida glabrata 2021-359, EUCAST E.DEF 9.3.2; read-out: Result of the broth dilution method assay (MIC)
# Procedure: as §1
# [3] = test system: Candida parapsilosis ATCC 22019; test: Broth dilution method (EUCAST); type: cell-based; details: Lodderomyces parapsilosis, ATCC22019; Candida parapsilosis ATCC 22019, EUCAST E.DEF 9.3.2; read-out: Result of the broth dilution method assay (MIC)
# Procedure: as §1
# [4] = test system: Candida tropicalis 2021-360; test: Broth dilution method (EUCAST); type: cell-based; details: 2021360; Candida tropicalis 2021-360, EUCAST E.DEF 9.3.2; read-out: Result of the broth dilution method assay (MIC)
# Procedure: as §1
# C. albicans = test: Membrane permeabilization assay using SYTOX Green; type: cell-based, Candida albicans; details: 4 μg mL-1 in 1% DMSO
# Text: Only isolated cells are stained, which can be explained by the fact that the dye can also be used to distinguish dead from live cells. Scale bar=100 μm.
# To finally examine if keanumycin A is a membrane-active compound, the inventors performed a membrane permeabilization assay using SYTOX Green (FIG. 6). As a cell-impermeant dye, SYTOX Green enters the cell upon loss of membrane integrity and binds to DNA, which results in fluorescently stained cells. […] Thus, the keanumycins are membrane-active compounds that disturb the structure of the fungal […].
# [5] = test system: Aspergillus fumigatus ATCC 204305; test: Broth dilution method (EUCAST); type: cell-based; details: ATCC204305; Aspergillus fumigatus ATCC 204305, EUCAST E.DEF 9.3.2; read-out: Result of the broth dilution method assay (MIC)
# Procedure: as §1
# [6] = test system: Fusarium proliferatum 2021-361; test: Broth dilution method (EUCAST); type: cell-based; details: 2021361; Fusarium proliferatum 2021-361, EUCAST E.DEF 9.3.2; read-out: Result of the broth dilution method assay (MIC)
# Procedure: as §1
# [7] = test system: Rhizopus arrhizus 2021-366; test: Broth dilution method (EUCAST); type: cell-based; details: 2021366; Rhizopus arrhizus 2021-366, EUCAST E.DEF 9.3.2; read-out: Result of the broth dilution method assay (MIC)
# Procedure: as §1
# [8] = test system: Scedosporium apiospermum 2016-079; test: Broth dilution method (EUCAST); type: cell-based; details: 2016079; Scedosporium apiospermum 2016-079, EUCAST E.DEF 9.3.2; read-out: Result of the broth dilution method assay (MIC)
# Procedure: as §1
# Candida albicans = test: Disk diffusion test; type: cell-based; details: 10 μg/mL in DMSO/MeOH, 50 μL per 9 mm hole, 24 h 37 °C
# Procedure: (§2) A qualitative screen of different microorganisms was performed using a disk diffusion test. Each microorganism was plated on Mueller Hinton agar plates and 9 mm holes were punched out. The respective compounds were dissolved in the indicated solvent to yield solutions of specified concentrations. 50 μL of the respective solutions were placed in each hole. The plates were incubated for 24 h at 37° C. After incubation, the size of inhibition zones was determined.
# Penicillium notatum = test: Disk diffusion test; type: cell-based; details: 10 μg/mL in DMSO/MeOH, 50 μL per 9 mm hole, 24 h 37 °C; methanol alone 10 mm
# Procedure: as §2
# [9] = test system: Sporobolomyces salmonicolor; test: Disk diffusion test; type: cell-based; details: 10 μg/mL in DMSO/MeOH, 50 μL per 9 mm hole, 24 h 37 °C; methanol alone 10 mm
# Procedure: as §2
# [10] = test system: Botrytis cinerea SF011406; test: Broth dilution method (NCCLS); type: cell-based
# Procedure: as §1
# Bacillus subtilis = test: Disk diffusion test; type: cell-based; details: 5 μg/mL in water, 50 μL per 9 mm hole, 24 h 37 °C
# Procedure: as §2
# [11] = test system: Enterococcus faecalis (VRE) 1528; test: Disk diffusion test; type: cell-based; details: 5 μg/mL in water, 50 μL per 9 mm hole, 24 h 37 °C
# Procedure: as §2
# Escherichia coli = test: Disk diffusion test; type: cell-based; details: 5 μg/mL in water, 50 μL per 9 mm hole, 24 h 37 °C
# Procedure: as §2
# Mycobacterium vaccae = test: Disk diffusion test; type: cell-based; details: 5 μg/mL in water, 50 μL per 9 mm hole, 24 h 37 °C
# Procedure: as §2
# [12] = test system: Pseudomonas aeruginosa K799/61; test: Disk diffusion test; type: cell-based; details: 5 μg/mL in water, 50 μL per 9 mm hole, 24 h 37 °C
# Procedure: as §2
# [13] = test system: Pseudomonas aeruginosa SG 137; test: Disk diffusion test; type: cell-based; details: 5 μg/mL in water, 50 μL per 9 mm hole, 24 h 37 °C
# Procedure: as §2
# [14] = test system: Staphylococcus aureus (MRSA) 134/94; test: Disk diffusion test; type: cell-based; details: 5 μg/mL in water, 50 μL per 9 mm hole, 24 h 37 °C
# Procedure: as §2
# [15] = test system: Staphylococcus aureus SG 511; test: Disk diffusion test; type: cell-based; details: 5 μg/mL in water, 50 μL per 9 mm hole, 24 h 37 °C
# Procedure: as §2
compound,measurement,setting,value
keanumycin C,stability,[1],slowly degrades in solution or when concentrated to dryness
hassallidin D,IC50,Candida strains,0.29 to 1 µM
"OC(Cn1cncn1)(Cn1cncn1)c1ccc(F)cc1F [Fluconazol, reference compound]",MIC,Candida auris 2021-353,< 64 µg/mL
same,MIC,[2],2 µg/mL
same,MIC,[3],2 µg/mL
same,MIC,[4],64 µg/mL
tunicamycin [reference compound],membrane permeabilization (SYTOX Green staining),C. albicans,membrane integrity of C. albicans is not disturbed
same,membrane permeabilization (SYTOX Green staining),C. albicans; listed as Tunicamycin,did not cause a loss of membrane integrity
"CC[C@@H]([C@H](C)O)n1ncn(-c2ccc(N3CCN(c4ccc(OC[C@@H]5CO[C@@](Cn6cncn6)(c6ccc(F)cc6F)C5)cc4)CC3)cc2)c1=O [Posaconazol, reference compound]",MIC,[5],0.125 µg/mL
same,MIC,Candida auris 2021-353,0.06 µg/mL
same,MIC,[2],0.25 µg/mL
same,MIC,[3],0.06 µg/mL
same,MIC,[4],0.125 µg/mL
same,MIC,[6],> 8 µg/mL
same,MIC,[7],4 µg/mL
same,MIC,[8],> 8 µg/mL
"C[C@@H]1[C@H](O)[C@@H](C)/C=C/C=C/C=C/C=C/C=C/C=C/C=C/[C@H](O[C@@H]2O[C@H](C)[C@@H](O)[C@H](N)[C@@H]2O)C[C@@H]2O[C@](O)(C[C@@H](O)C[C@@H](O)[C@H](O)CC[C@@H](O)C[C@@H](O)CC(=O)O[C@H]1C)C[C@H](O)[C@H]2C(=O)O [Amphotericin B, reference compound]",Inhibition area diameter,Candida albicans,21 mm
same,Inhibition area diameter,Penicillium notatum,18 mm
same,Inhibition area diameter,[9],18 mm
"C/C=C(\NC(=O)[C@@H](CC(C)C)NC(=O)[C@@H](C)NC(=O)[C@H](NC(=O)[C@@H](C)NC(=O)[C@@H](CO)NC(=O)[C@H](NC(=O)[C@H](C)NC(=O)[C@@H](C)NC(=O)[C@@H](C)NC(=O)[C@H](NC(=O)[C@H](NC(=O)[C@H]1CCCN1C(=O)/C(=C/C)NC(=O)C[C@H](O)CCCCCCC)[C@H](C)CC)C(C)C)C(C)C)C(C)C)C(=O)N[C@H]1C(=O)N[C@@H](C)C(=O)N[C@@H](CCN)C(=O)N[C@H](CO)C(=O)N[C@@H](Cc2ccccc2)C(=O)O[C@@H]1C [jessenipeptin, reference compound] ({Decanoyl(3R-OH)}-[Dhb][dP][dI][dV][dA][dA]A[dV][dS][dA][dV][dA][dL][Dhb][d(aThr)]A[Dab][dS]F; ester 15-C)",MIC,[10]; B. cinerea,10 µg/mL
same,MIC,"[10]; Botrytis cinerea, NCCLS, 22 °C, read-out: MIC",5.2 µM
"O=C(O)c1cn(C2CC2)c2cc(N3CCNCC3)c(F)cc2c1=O [Ciprofloxacin, reference compound]",Inhibition area diameter,Bacillus subtilis,29 mm
same,Inhibition area diameter,[11],16 mm
same,Inhibition area diameter,Escherichia coli,26 mm
same,Inhibition area diameter,Mycobacterium vaccae,22 mm
same,Inhibition area diameter,[12],28 mm
same,Inhibition area diameter,[13],26 mm
same,Inhibition area diameter,[14],0 mm
same,Inhibition area diameter,[15],17 mm
"C[C@@H](c1ncncc1F)[C@](O)(Cn1cncn1)c1ccc(F)cc1F [Voriconazol, reference compound]",MIC,[5],0.5 µg/mL
same,MIC,Candida auris 2021-353,1 µg/mL
same,MIC,[2],0.06 µg/mL
same,MIC,[3],0.03 µg/mL
same,MIC,[4],1 µg/mL
same,MIC,[6],8 µg/mL
same,MIC,[7],> 8 µg/mL
same,MIC,[8],1 µg/mL
